Experimental data reported in patent publication US20140349396A1, “Compositions and Methods Relating to Clonal Progenitor Cells” (priority 2011, published 2014).

Test system: myoblasts
Test: Culture of hES-derived clonal myoblasts with or without the TGFβ inhibitor
Assay type: cell-based, human
Conditions: removal of SB431542 together with switch from Matrigel to gelatin substrate (FIG. 11)
Text: FIG. 11 is a photomicrograph showing myoblasts grown on Matrigel® in the presence of a TGFβ inhibitor (SB431542)(top) and myoblasts switched to gelatin without the TGFβ inhibitor.

NC(=O)c1ccc(-c2nc(-c3ccc4c(c3)OCO4)c(-c3ccccn3)[nH]2)cc1 [SB431542]
proliferation of myoblasts: increased proliferation
